Data published in PubChem BioAssay AID330 (DTP/NCI, 2004).
Several values for one entry are separate records, joined by “and”; a condition that tells them apart may be missing. Equal entries are not always repeated. Inconclusive results and toxic doses are left out. How the source made its calls: active means survival T/C of 150% or more; inactive means T/C below 125% in these data.

Test system: P388 leukemia ip, CD2F1 mice, survival T/C
Assay: NCI In Vivo Anticancer Drug Screen. Data for tumor model P388 Leukemia (intraperitoneal) in CD2F1 (CDF1) mice
Conditions: endpoint: median survival time, higher = longer survival
Procedure, shortened: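 Mice carrying the transplanted tumor received test compound or vehicle. Survival was recorded in each group, and the value is the treated-group measurement divided by that of the vehicle-treated control group.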

[1] = dose: 25.0 mg/kg/injection, schedule: Q01DX009 (ip), vehicle: saline with Tween-80
[2] = dose: 50.0 mg/kg/injection, schedule: Q01DX009 (ip), vehicle: saline with Tween-80
[3] = dose: 100.0 mg/kg/injection, schedule: Q01DX009 (ip), vehicle: saline with Tween-80
[4] = dose: 50.0 mg/kg/injection, schedule: Q01DX009 (ip), vehicle: saline
[5] = dose: 100.0 mg/kg/injection, schedule: Q01DX009 (ip), vehicle: saline
[6] = dose: 200.0 mg/kg/injection, schedule: Q01DX009 (ip), vehicle: saline
[7] = dose: 60.0 mg/kg/injection, schedule: Q01DX005 (ip), vehicle: Klucel (hydroxypropylcellulose) (HPC)
[8] = dose: 120.0 mg/kg/injection, schedule: Q01DX005 (ip), vehicle: Klucel (hydroxypropylcellulose) (HPC)
[9] = dose: 240.0 mg/kg/injection, schedule: Q01DX005 (ip), vehicle: Klucel (hydroxypropylcellulose) (HPC)
[10] = dose: 50.0 mg/kg/injection, schedule: Q01DX005 (ip), vehicle: saline with Tween-80
[11] = dose: 100.0 mg/kg/injection, schedule: Q01DX005 (ip), vehicle: saline with Tween-80
[12] = dose: 200.0 mg/kg/injection, schedule: Q01DX005 (ip), vehicle: saline with Tween-80
[13] = dose: 60.0 mg/kg/injection, schedule: Q01DX005 (ip), vehicle: saline with Tween-80
[14] = dose: 120.0 mg/kg/injection, schedule: Q01DX005 (ip), vehicle: saline with Tween-80
[15] = dose: 240.0 mg/kg/injection, schedule: Q01DX005 (ip), vehicle: saline with Tween-80
[16] = dose: 50.0 mg/kg/injection, schedule: Q01DX009 (ip), vehicle: Klucel (hydroxypropylcellulose) (HPC)
[17] = dose: 100.0 mg/kg/injection, schedule: Q01DX009 (ip), vehicle: Klucel (hydroxypropylcellulose) (HPC)
[18] = dose: 200.0 mg/kg/injection, schedule: Q01DX009 (ip), vehicle: Klucel (hydroxypropylcellulose) (HPC)

Measured: T/C

Cc1ccc(OP(=O)(Oc2ccc(C)cc2)Oc2ccc(C)cc2)cc1.Cc1ccc(OP(=O)(Oc2ccc(C)cc2)Oc2ccc(C)cc2)cc1.Cc1ccc(OP(=O)(Oc2ccc(C)cc2)Oc2ccc(C)cc2)cc1.Cc1ccc(OP(=O)(Oc2ccc(C)cc2)Oc2ccc(C)cc2)cc1.[Mn+2].[O-][Cl+3]([O-])([O-])O
inactive: dose: 10.0 mg/kg/injection, schedule: Q01DX001 (ip), vehicle: Klucel (hydroxypropylcellulose) (HPC) 101 % of control | dose: 20.0 mg/kg/injection, schedule: Q01DX001 (ip), vehicle: Klucel (hydroxypropylcellulose) (HPC) 94 % of control | dose: 40.0 mg/kg/injection, schedule: Q01DX001 (ip), vehicle: Klucel (hydroxypropylcellulose) (HPC) 99 % of control

CC(c1ccccc1)C1NC(=O)NC1=O (stereo not drawn)
inactive: [1] 117 % of control | [2] 106 % of control | [3] 106 % of control

NC(CS)=NCC12CC3CC(CC(C3)C1)C2
inactive: dose: 7.5 mg/kg/injection, schedule: Q01DX005 (ip), vehicle: saline with Tween-80 100 % of control | dose: 15.0 mg/kg/injection, schedule: Q01DX005 (ip), vehicle: saline with Tween-80 100 % of control | dose: 30.0 mg/kg/injection, schedule: Q01DX005 (ip), vehicle: saline with Tween-80 115 % of control

Clc1cccnc1Cl
inactive: [4] 100 % of control and 110 % of control | [5] 103 % of control and 105 % of control | [6] 99 % of control and 106 % of control | dose: 400.0 mg/kg/injection, schedule: Q01DX009 (ip), vehicle: saline 97 % of control

Cc1ccc(S(=O)(=O)/N=S(\C)CCCl)cc1 (stereo not drawn)
inactive: dose: 100.0 mg/kg/injection, schedule: Q04DX003 (ip), vehicle: suspension in saline 100 % of control | dose: 200.0 mg/kg/injection, schedule: Q04DX003 (ip), vehicle: suspension in saline 100 % of control | dose: 400.0 mg/kg/injection, schedule: Q04DX003 (ip), vehicle: suspension in saline 106 % of control

COc1cc(OC)c(NC(=O)Nc2cc(Cl)ccc2Cl)cc1Cl
inactive: [2] 94 % of control | [3] 91 % of control

COCN(Cc1ccccc1)C[Si](C)(C)C
inactive: dose: 100.0 mg/kg/injection, schedule: Q01DX001 (ip), vehicle: saline with Tween-80 106 % of control | dose: 200.0 mg/kg/injection, schedule: Q01DX001 (ip), vehicle: saline with Tween-80 99 % of control

CC1(C)SC(C2NC(=O)C(c3ccccc3)NC2=O)NC1C(=O)O (stereo not drawn)
inactive: [7] 105 % of control | [8] 99 % of control | [9] 101 % of control

C[S+](C)CCCNC(=O)c1csc(CCNC(=O)c2ccccc2)n1
inactive: dose: 12.5 mg/kg/injection, schedule: Q04DX003 (ip), vehicle: saline + alcohol 95 % of control | dose: 25.0 mg/kg/injection, schedule: Q04DX003 (ip), vehicle: saline + alcohol 100 % of control | dose: 50.0 mg/kg/injection, schedule: Q04DX003 (ip), vehicle: saline + alcohol 100 % of control

O=c1c2cc(Cl)ccc2on1CN1CCOCC1
inactive: [10] 111 % of control | [11] 118 % of control | [12] 111 % of control

CCN(CC)C(=O)CCc1ccc(Cl)cc1
inactive: [7] 104 % of control | [8] 95 % of control | [9] 102 % of control

C=C[C@H](c1ccccc1O)c1cc(OC)c(OC)cc1OC
inactive: dose: 31.75 mg/kg/injection, schedule: Q01DX005 (ip), vehicle: Klucel (hydroxypropylcellulose) (HPC) 104 % of control | dose: 63.5 mg/kg/injection, schedule: Q01DX005 (ip), vehicle: Klucel (hydroxypropylcellulose) (HPC) 103 % of control | dose: 127.0 mg/kg/injection, schedule: Q01DX005 (ip), vehicle: Klucel (hydroxypropylcellulose) (HPC) 106 % of control | dose: 254.0 mg/kg/injection, schedule: Q01DX005 (ip), vehicle: Klucel (hydroxypropylcellulose) (HPC) 102 % of control

CC1C(n2[nH]c(=O)n(C)c2=O)c2ccccc2-n2c(=O)n(C)c(=O)n21 (stereo not drawn)
inactive: dose: 50.0 mg/kg/injection, schedule: Q01DX005 (ip), vehicle: Klucel (hydroxypropylcellulose) (HPC) 96 % of control | dose: 100.0 mg/kg/injection, schedule: Q01DX005 (ip), vehicle: Klucel (hydroxypropylcellulose) (HPC) 101 % of control | dose: 200.0 mg/kg/injection, schedule: Q01DX005 (ip), vehicle: Klucel (hydroxypropylcellulose) (HPC) 103 % of control

CC1=CC(=O)NC1O (stereo not drawn)
inactive: dose: 2.5 mg/kg/injection, schedule: Q01DX010 (ip), vehicle: saline 104 % of control | dose: 5.0 mg/kg/injection, schedule: Q01DX010 (ip), vehicle: saline 95 % of control | dose: 10.0 mg/kg/injection, schedule: Q01DX010 (ip), vehicle: saline 90 % of control | dose: 15.0 mg/kg/injection, schedule: Q01DX010 (ip), vehicle: saline 95 % of control | dose: 23.0 mg/kg/injection, schedule: Q01DX009 (ip), vehicle: saline 95 % of control | dose: 35.0 mg/kg/injection, schedule: Q01DX009 (ip), vehicle: saline 86 % of control | [4] 104 % of control

Cc1ccc(Nc2nnc(CSc3ccc(Cl)cc3)s2)c(S(=O)(=O)O)c1
inactive: [13] 104 % of control | [14] 94 % of control | [15] 104 % of control

CCOC(=O)N1NC(=O)CC1(C)C
inactive: dose: 100.0 mg/kg/injection, schedule: Q01DX001 (ip), vehicle: saline 95 % of control | dose: 200.0 mg/kg/injection, schedule: Q01DX001 (ip), vehicle: saline 100 % of control | dose: 400.0 mg/kg/injection, schedule: Q01DX001 (ip), vehicle: saline 90 % of control

O=C(CNC(=O)NCc1ccco1)NNC(=O)Nc1ccc(Cl)c([N+](=O)[O-])c1
inactive: [13] 95 % of control | [14] 94 % of control | [15] 97 % of control

COc1cc(C2OCCO2)cc(OC)c1O
inactive: [4] 97 % of control | [5] 105 % of control | [6] 101 % of control

NC(CCC(=O)NC(CS)C(=O)O)C(=O)O (stereo not drawn)
inactive: [4] 100 % of control | [5] 111 % of control

O=C(NCCCCCCCCNC(=O)C(Cl)Cl)C(Cl)Cl
inactive: [10] 106 % of control | [11] 99 % of control | [12] 92 % of control

Cc1cccc(OCCOC(=O)Nc2cccc(C(F)(F)F)c2)c1
inactive: [13] 99 % of control | [14] 96 % of control | [15] 96 % of control

COC1CCC(NC(C)=O)C(C2CCCCC2)C1 (stereo not drawn)
inactive: [10] 99 % of control | [11] 94 % of control | [12] 91 % of control

O=CC(O)C(O)C1[O][Sb][O]C1CO (stereo not drawn)
inactive: dose: 50.0 mg/kg/injection, schedule: Q01DX005 (ip), vehicle: saline 99 % of control | dose: 100.0 mg/kg/injection, schedule: Q01DX005 (ip), vehicle: saline 100 % of control | dose: 200.0 mg/kg/injection, schedule: Q01DX005 (ip), vehicle: saline 103 % of control

Cc1c(C)c2ccccc2[nH]c1=O
inactive: [16] 101 % of control | [17] 104 % of control | [18] 113 % of control | dose: 400.0 mg/kg/injection, schedule: Q01DX009 (ip), vehicle: Klucel (hydroxypropylcellulose) (HPC) 100 % of control

CCCOP(=O)(NNP(=O)(OCCC)OCCC)OCCC
inactive: [2] 106 % of control | [3] 116 % of control | dose: 200.0 mg/kg/injection, schedule: Q01DX009 (ip), vehicle: saline with Tween-80 116 % of control

Cc1ccc(Cl)c(NC(=S)NCc2cccnc2)c1
inactive: [16] 97 % of control | [17] 103 % of control | [18] 108 % of control

C[C@]12CCC(=O)C=C1CC[C@@H]1[C@@H]2[C@@H](O)C[C@@]2(C)[C@H]1CC[C@]2(C)O
inactive: [1] 90 % of control | [2] 100 % of control | [3] 100 % of control | dose: 100.0 mg/kg/injection, schedule: Q04DX003 (ip), vehicle: saline with Tween-80 100 % of control | dose: 200.0 mg/kg/injection, schedule: Q04DX003 (ip), vehicle: saline with Tween-80 100 % of control | dose: 400.0 mg/kg/injection, schedule: Q04DX003 (ip), vehicle: saline with Tween-80 100 % of control

CCOC(=O)c1cnc2c(OC)cccc2c1Nc1ccc2c(c1)OCO2
inactive: [7] 101 % of control | [8] 97 % of control | [9] 96 % of control

CCOC(=O)/C(C#N)=C1/CCCN1C
inactive: dose: 100.0 mg/kg/injection, schedule: Q04DX003 (ip), vehicle: Klucel (hydroxypropylcellulose) (HPC) 107 % of control | dose: 200.0 mg/kg/injection, schedule: Q04DX003 (ip), vehicle: Klucel (hydroxypropylcellulose) (HPC) 109 % of control
